{"source": "paper PMC9525273", "about": "(Nature Communications, 2022)", "assay_type_in_all_cases": "cell-based, Plasmodium falciparum", "key": {"NF54^WT parasites": {"tested_on": "NF54^WT parasites", "assay": "microbe, parasite or virus in culture", "description": "For the NF54-based lines and Dd2-B2-PfATP4^G358S and its parent, assays were initiated with cultures containing predominantly ring-stage parasites with a parasitaemia of 0.3% and a haematocrit of 1%. All assays using NF54 were performed in culture media containing 10% O + human serum. The duration of the assays was 72 h and the concentration of DMSO was <0.5% (v/v). Serial dilutions of the test compounds were performed using a Tecan D300e digital dispenser, with parasite cultures added manually. Parasite survival was assessed by flow cytometry on an Intellicyt iQue3 (Essen Bioscience), with 1× SYBR Green I (Invitrogen) and 200 nM MitoTracker Deep Red FM (Invitrogen) used to stain the nucleus and the mitochondria in live parasites, respectively. The gating strategy used to quantify parasite survival, performed using FlowJo version 10 (FlowJo LLC.), is illustrated in Supplementary Fig. 9. IC50 and IC90 values were calculated by linear interpolation of the dose-response data."}, "Dd2 parasites": {"tested_on": "Dd2 parasites", "assay": "P. falciparum proliferation assay (72 h, fluorescent DNA-intercalating dye)", "description": "(§1) For experiments with all other parasites, the effects of compounds of interest on parasite proliferation was measured in 96-well plates containing serial dilutions of the compounds in culture medium, with a fluorescent DNA-intercalating dye used to detect surviving parasites. The assays were initiated with erythrocytes infected with predominantly ring-stage parasites, and the starting parasitaemia and haematocrit were both 1%."}, "[1]": {"tested_on": "Dd2-Polδ-PfATP4^G358S parasites", "assay": "P. falciparum proliferation assay (72 h, fluorescent DNA-intercalating dye)", "description": "as §1"}, "[2]": {"tested_on": "HCR1 parasites (highly cipargamin-resistant clone 1)", "assay": "P. falciparum proliferation assay (72 h, fluorescent DNA-intercalating dye)", "details": "Plasmodium falciparum", "description": "as §1"}, "Dd2-Polδ parasites": {"tested_on": "Dd2-Polδ parasites", "assay": "P. falciparum proliferation assay (72 h, fluorescent DNA-intercalating dye)", "description": "as §1"}, "[3]": {"tested_on": "Dd2-PfATP4^T418N,P990R parasites", "assay": "P. falciparum proliferation assay (72 h, fluorescent DNA-intercalating dye)", "description": "as §1"}, "[4]": {"tested_on": "HCR2 parasites (highly cipargamin-resistant clone 2)", "assay": "P. falciparum proliferation assay (72 h, fluorescent DNA-intercalating dye)", "details": "Plasmodium falciparum", "description": "as §1"}, "NF54^CTL parasites": {"tested_on": "NF54^CTL parasites", "assay": "P. falciparum proliferation assay (72 h, flow cytometry, SYBR Green I/MitoTracker)", "outline": "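Predominantly ring-stage cultures at 0.3% parasitaemia, 1% haematocrit, in medium with 10% O+ human serum; compound exposure 72 h, DMSO <0.5% (v/v). Live parasites counted by flow cytometry with SYBR Green I and 200 nM MitoTracker Deep Red. IC50/IC90 from linear interpolation of dose-response data.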"}}, "note": "Several values for one entry are separate records, joined by “and”; a condition that tells them apart may be missing. Equal values may be shown once. Read-outs that look alike come from different tables or passages of the source."}
{"smiles": "N#Cc1cc(NC(=O)[C@H]2c3ccccc3C(=O)N(CC(F)(F)F)[C@@H]2c2cccnc2)ccc1F", "note": "[(+)-SJ733]", "values": [{"measurement": "IC90", "setting": "NF54^WT parasites; NF54WT parasites, individual experiments, read-out: IC90 values", "result": "171 nM and 165 nM and 176 nM"}, {"measurement": "FC (IC50)", "setting": "NF54^WT parasites; NF54WT, reference line", "result": 1.0, "unit": "fold"}, {"measurement": "FC (IC90)", "setting": "NF54^WT parasites; NF54WT, reference line", "result": 1.0, "unit": "fold"}, {"measurement": "IC50", "setting": "NF54^WT parasites; NF54WT, single experiments, source data of Fig. 2 (nM in Supplementary Table 5), read-out: IC50 values", "result": "89.8 nM and 87.1 nM and 107 nM"}, {"measurement": "IC90", "setting": "NF54^WT parasites; Plasmodium falciparum, NF54, NF54WT parasites, individual experiments, read-out: IC90 values", "result": 141, "unit": "nM"}, {"measurement": "IC90", "setting": "NF54^WT parasites; Plasmodium falciparum, NF54, NF54WT parasites, mean of the experiments, read-out: IC90 values, MEAN", "result": 164, "unit": "nM"}, {"measurement": "IC50", "setting": "NF54^WT parasites; Plasmodium falciparum, NF54, NF54WT, MEAN, source data of Fig. 2, read-out: IC50 values, MEAN", "result": 93.8, "unit": "nM"}, {"measurement": "IC50", "setting": "NF54^WT parasites; Plasmodium falciparum, NF54, NF54WT, single experiments, source data of Fig. 2 (nM in Supplementary Table 5), read-out: IC50 values", "result": 91.6, "unit": "nM"}, {"measurement": "IC50", "setting": "Dd2 parasites; Plasmodium falciparum, DD2, read-out: IC50 values, Dd2, single experiments, source data of Fig. 2 (nM in Supplementary Table 1)", "result": 58.3, "unit": "nM"}, {"measurement": "IC50", "setting": "Dd2 parasites; Plasmodium falciparum, DD2, read-out: IC50 values, MEAN, Dd2, MEAN, source data of Fig. 2", "result": 59.6, "unit": "nM"}, {"measurement": "IC50", "setting": "Dd2 parasites; Plasmodium falciparum, DD2, read-out: Mean IC50 value ± SEM for growth inhibition, Dd2, Supplementary Table 1, Set 1", "result": "60 ± 2", "unit": "nM"}, {"measurement": "IC50", "setting": "Dd2 parasites; read-out: IC50 values, Dd2, single experiments, source data of Fig. 2 (nM in Supplementary Table 1)", "result": "66.6 nM and 57.7 nM and 59 nM and 56.4 nM"}, {"measurement": "IC50", "setting": "[1]; Dd2-Polδ-PfATP4G358S, single experiments, source data of Fig. 2 (nM in Supplementary Table 1), read-out: IC50 values", "result": "11800 nM and 8860 nM and 8730 nM"}, {"measurement": "IC50", "setting": "[1]; Plasmodium falciparum, DD2, Dd2-Polδ-PfATP4G358S, MEAN, source data of Fig. 2, read-out: IC50 values, MEAN", "result": 9070, "unit": "nM"}, {"measurement": "IC50", "setting": "[1]; Plasmodium falciparum, DD2, Dd2-Polδ-PfATP4G358S, single experiments, source data of Fig. 2 (nM in Supplementary Table 1), read-out: IC50 values", "result": 6890, "unit": "nM"}, {"measurement": "IC50", "setting": "[1]; Plasmodium falciparum, DD2, SET-2, read-out: Mean IC50 value ± SEM for growth inhibition, Dd2-Polδ-PfATP4G358S, Supplementary Table 1, Set 2", "result": 9070, "unit": "nM"}, {"measurement": "IC50", "setting": "[2]; HCR1, MEAN, source data of Fig. 2, read-out: IC50 values, MEAN", "result": 21500, "unit": "nM"}, {"measurement": "IC50", "setting": "[2]; read-out: Mean IC50 value ± SEM for growth inhibition, HCR1, Supplementary Table 1, Set 1", "result": 21500, "unit": "nM"}, {"measurement": "IC50", "setting": "Dd2-Polδ parasites; Dd2-Polδ, single experiments, source data of Fig. 2 (nM in Supplementary Table 1), read-out: IC50 values", "result": "30.9 nM and 37.1 nM and 51.3 nM"}, {"measurement": "IC50", "setting": "Dd2-Polδ parasites; Plasmodium falciparum, DD2, Dd2-Polδ, MEAN, source data of Fig. 2, read-out: IC50 values, MEAN", "result": 40.7, "unit": "nM"}, {"measurement": "IC50", "setting": "Dd2-Polδ parasites; Plasmodium falciparum, DD2, Dd2-Polδ, single experiments, source data of Fig. 2 (nM in Supplementary Table 1), read-out: IC50 values", "result": 43.6, "unit": "nM"}, {"measurement": "IC50", "setting": "[3]; Dd2-PfATP4T418N,P990R, single experiments, source data of Fig. 2 (nM in Supplementary Table 1), read-out: IC50 values", "result": "359 nM and 293 nM and 333 nM and 337 nM"}, {"measurement": "IC50", "setting": "[3]; Plasmodium falciparum, DD2, Dd2-PfATP4T418N,P990R, MEAN, source data of Fig. 2, read-out: IC50 values, MEAN", "result": 331, "unit": "nM"}, {"measurement": "IC50", "setting": "[3]; Plasmodium falciparum, DD2, Dd2-PfATP4T418N,P990R, single experiments, source data of Fig. 2 (nM in Supplementary Table 1), read-out: IC50 values", "result": 334, "unit": "nM"}, {"measurement": "IC50", "setting": "[3]; Plasmodium falciparum, DD2, read-out: Mean IC50 value ± SEM for growth inhibition, Dd2-PfATP4T418N,P990R, Supplementary Table 1, Set 1", "result": "331 ± 11", "unit": "nM"}, {"measurement": "IC50", "setting": "[4]; HCR2, MEAN, source data of Fig. 2, read-out: IC50 values, MEAN", "result": 17600, "unit": "nM"}, {"measurement": "IC50", "setting": "[4]; read-out: Mean IC50 value ± SEM for growth inhibition, HCR2, Supplementary Table 1, Set 1", "result": 17600, "unit": "nM"}, {"measurement": "FC (IC50)", "setting": "NF54^CTL parasites; NF54CTL compared to NF54WT", "result": 0.9, "unit": "fold"}, {"measurement": "FC (IC90)", "setting": "NF54^CTL parasites; NF54CTL compared to NF54WT", "result": 0.9, "unit": "fold"}, {"measurement": "IC90", "setting": "NF54^CTL parasites; NF54CTL parasites, individual experiments, read-out: IC90 values", "result": "130 nM and 156 nM and 157 nM"}, {"measurement": "IC50", "setting": "NF54^CTL parasites; NF54CTL, single experiments, source data of Fig. 2 (nM in Supplementary Table 5), read-out: IC50 values", "result": "85.7 nM and 81.4 nM and 82.7 nM"}, {"measurement": "IC90", "setting": "NF54^CTL parasites; Plasmodium falciparum, NF54, NF54CTL parasites, mean of the experiments, read-out: IC90 values, MEAN", "result": 150, "unit": "nM"}, {"measurement": "IC50", "setting": "NF54^CTL parasites; Plasmodium falciparum, NF54, NF54CTL, MEAN, source data of Fig. 2, read-out: IC50 values, MEAN", "result": 84.8, "unit": "nM"}, {"measurement": "IC50", "setting": "NF54^CTL parasites; Plasmodium falciparum, NF54, NF54CTL, single experiments, source data of Fig. 2 (nM in Supplementary Table 5), read-out: IC50 values", "result": 89.3, "unit": "nM"}]}
